Measured values as given in patent publication US8722897B2, “Metal complexes of thiourea and derivatives as metal delivering anti-cancer and anti-inflammatory agents” (priority 2010, dated 2014).
Where two headings read alike, the source gives them in different places. Each block holds one compound with its values, some of them ahead of it.

How the values were obtained:
[1] = biological target: T1, thioredoxin reductase (TrxR) (Homo sapiens, UniProt Q16881); experiment: Cellular thioredoxin reductase activity of treated HeLa cells; assay type: cell-based; conditions: one-hour treatment
T1 sequence (Q16881 1-649): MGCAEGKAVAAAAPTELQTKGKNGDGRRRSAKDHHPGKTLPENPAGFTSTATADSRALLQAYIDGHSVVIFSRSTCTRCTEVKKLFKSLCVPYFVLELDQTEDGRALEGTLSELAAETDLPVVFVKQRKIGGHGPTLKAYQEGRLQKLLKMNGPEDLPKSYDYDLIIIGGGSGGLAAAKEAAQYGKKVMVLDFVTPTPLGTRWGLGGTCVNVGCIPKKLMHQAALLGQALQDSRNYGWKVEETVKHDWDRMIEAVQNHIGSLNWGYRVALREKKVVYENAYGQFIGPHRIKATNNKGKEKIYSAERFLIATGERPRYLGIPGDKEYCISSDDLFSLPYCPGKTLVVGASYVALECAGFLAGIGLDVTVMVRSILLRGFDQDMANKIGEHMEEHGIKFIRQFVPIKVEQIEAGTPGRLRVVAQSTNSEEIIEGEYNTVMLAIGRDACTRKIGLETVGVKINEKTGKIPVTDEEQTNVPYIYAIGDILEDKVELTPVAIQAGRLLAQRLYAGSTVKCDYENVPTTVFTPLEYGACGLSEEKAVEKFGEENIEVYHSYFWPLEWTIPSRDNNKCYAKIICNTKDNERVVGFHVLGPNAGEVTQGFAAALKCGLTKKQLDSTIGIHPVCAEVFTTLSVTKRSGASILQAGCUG
Experimental: (§1) Cells were seeded at 2×10^5/well in 6-well plates and incubated for 24 hours. The metal thiourea compounds (10^−9 to 10^−4 M) were serially diluted and added to the cells (final DMSO concentrations≦1%). After an one-hour incubation, cells were washed thrice with phosphate buffered saline and 100 μL ice-cold lysis buffer (50 mM phosphate buffer, pH 7.4, 1 mM EDTA, 0.1% Triton-X 100) were added to the cell layer. Cell lysis was carried on ice for 5 minutes and the cell lysates were collected and stored at −80° C. or assayed immediately. Cell lysates (10 μg proteins) were added to a mixture (100 μL) containing 100 mM phosphate, pH 7.4, 1 mM EDTA and 0.2 mM NADPH.

[2] = test system: glutathione peroxidase (GPx); experiment: Cellular glutathione peroxidase activity of treated HeLa cells; assay type: cell-based, human; conditions: one-hour treatment
Experimental: as §1, with “immediately.” for “immediately. Cell lysates (10 μg proteins) were added to a mixture (100 μL) containing 100 mM phosphate, pH 7.4, 1 mM EDTA and 0.2 mM NADPH.”
Cell lysates (10 μg proteins) were added to a mixture containing 100 mM phosphate, pH 7.4, 2 mM GSH, 1 U glutathione reductase, and 0.2 mM NADPH. Reaction was initiated by adding tert-butyl hydroperoxide (300 μM) and the NADPH oxidation was measured as decreases in O.D.340 nm in 10 min. GPx activities (ΔO.D.340 nm/min) were determined by subtracting the spontaneous NADPH oxidation in the absence of tert-butyl hydroperoxide.

[3] = biological target: T2, Glutathione reductase (GR) (Homo sapiens, UniProt P00390); experiment: Cellular glutathione reductase activity of treated HeLa cells; assay type: cell-based; conditions: one-hour treatment, up to 100 μM
T2 construct: endogenous in cells; host or cells: HeLa
T2 sequence (P00390 44-522): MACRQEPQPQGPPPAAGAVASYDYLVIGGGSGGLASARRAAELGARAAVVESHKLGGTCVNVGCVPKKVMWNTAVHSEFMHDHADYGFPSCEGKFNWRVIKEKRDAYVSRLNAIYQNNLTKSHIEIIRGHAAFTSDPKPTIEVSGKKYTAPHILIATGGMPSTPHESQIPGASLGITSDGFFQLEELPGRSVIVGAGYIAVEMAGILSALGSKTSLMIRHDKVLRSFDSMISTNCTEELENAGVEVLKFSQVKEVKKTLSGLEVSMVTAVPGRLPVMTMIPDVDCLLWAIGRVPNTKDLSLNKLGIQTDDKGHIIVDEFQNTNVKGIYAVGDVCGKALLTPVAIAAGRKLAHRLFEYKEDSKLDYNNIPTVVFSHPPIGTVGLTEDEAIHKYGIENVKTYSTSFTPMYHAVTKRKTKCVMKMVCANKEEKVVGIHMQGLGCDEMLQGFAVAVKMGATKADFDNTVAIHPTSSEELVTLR
Experimental: as §1, with “immediately.” for “immediately. Cell lysates (10 μg proteins) were added to a mixture (100 μL) containing 100 mM phosphate, pH 7.4, 1 mM EDTA and 0.2 mM NADPH.”
Cell lysates (10 μg proteins) were added to a mixture containing 100 mM phosphate, pH 7.4, 1 mM EDTA, 1 mM GSSG and 0.2 mM NADPH. Reaction was initiated by adding DTNB (3 mM final) and the increases in O.D.412 nm were measured for 10 min. GR activities were determined by subtracting the increases in O.D.412 nm in the absence of GSSG.

[4] = Cytotoxicity assay (MTT), HeLa; conditions: human, HeLa cells
[5] = Cytotoxicity assay (MTT), HepG2; conditions: human, HepG2 cells
[6] = Cytotoxicity assay (MTT), SUNE1; conditions: human, SUNE1 cells
[7] = Cytotoxicity assay (MTT), NCI-H460; conditions: human, NCI-H460 cells
[8] = test system: panel of cancer cell lines; conditions: Homo sapiens, read-out: half maximal inhibitory concentrations (IC50), panel of cancer cell lines
[9] = test system: NCI-H460 non-small cell lung cancer cells; assay type: in vivo, mice
Experimental: The in vivo experiment was conducted in Pearl Materia Medica Development (Shenzhen) Limited and performed with approval from the Committee on the Use of Live Animals for Teaching and Research. SPF grade four-week-old female BALB/c AnN-nu mice (nude mice, 16-18 g) were purchased. Tumor cells (5×10^6) resuspended in RPMI medium were implanted by subcutaneous injection on the right flank of the mice. When tumors were approximately 50 mm^3 in size, animals were randomly separated into 3 groups to receive treatment of twice-a-week intraperitoneal injection of 10% PET vehicle control (where 10% PET=6% polyethylene glycol 400, 3% ethanol, 1% Tween 80 and 90% PBS), complex 1 (100 mg/kg) or cyclophosphamide (30 mg/kg) for 8 times. After 28 days, the mice were sacrificed and the tumors were isolated and weighted.

[10] = test system: HeLa, human cervical epithelioid carcinoma; experiment: Cytotoxicity assay (MTT), HeLa; conditions: read-out: Cytotoxicities (IC50), HeLa, 72 h, MTT
[11] = test system: HeLa, human cervical epithelioid carcinoma
[12] = test system: HepG2, human hepatocellular carcinoma
[13] = test system: SUNE1, human nasopharyngeal carcinoma
[14] = test system: NCI-H460 = human lung carcinoma

effect on cellular TrxR activity, added up to 100 μM [1]: not affected | effect on cellular GR activity, added up to 100 μM [3]: not affected | IC50 [8]: > 100 µM
SMILES: COc1ccc(N2CCN(c3ccc(OC)cc3)C2=S)cc1 [TU, 1,3-bis(4-methoxyphenyl)imidazolidine-2-thione, reference compound]
effect on cellular GPx activity, added up to 100 μM [2]: not affected | IC50 at 72 h [4]: > 100 µM | IC50 at 72 h [5]: > 100 µM | IC50 at 72 h [6]: > 100 µM | IC50 at 72 h [7]: > 100 µM

SMILES: O=P1(N(CCCl)CCCl)NCCCO1 (stereo not drawn) [cyclophosphamide]
Tumor volume, Day 13 ([9]; Day 13, 30 mg/kg i.p. twice a week): 325.041 ± 170.053 mm^3 | Tumor volume, Day 17 ([9]; Day 17, 30 mg/kg i.p. twice a week): 639.465 ± 422.362 mm^3 | Tumor volume, Day 21 ([9]; Day 21, 30 mg/kg i.p. twice a week): 1032.258 ± 594.026 mm^3 | Tumor volume, Day 25 ([9]; Day 25, 30 mg/kg i.p. twice a week): 1474.100 ± 900.357 mm^3 | Tumor volume, Day 29 ([9]; Day 29, 30 mg/kg i.p. twice a week): 1438.735 ± 845.815 mm^3

SMILES: O=[N+]([O-])[O-].[Ag+] [AgNO3, reference compound]
IC50 [10]: 32.1 ± 1.2 µM

SMILES: F[P-](F)(F)(F)(F)F.NC(N)=S.NC(N)=S.[Cu+] [complex 3, [Cu(TU)2]PF6]
effect on cellular TrxR activity, added up to 100 μM [1]: not affected | effect on cellular GPx activity, added up to 100 μM [2]: not affected | effect on cellular GR activity, added up to 100 μM [3]: not affected | IC50 [11]: 12.7 ± 0.9 µM | IC50 [12]: 13 ± 0.9 µM | IC50 [13]: 8.5 ± 1 µM | IC50 [14]: 11.2 ± 0.9 µM
